According to US20260115288A1, “T CELL MANUFACTURING COMPOSITIONS AND METHODS” (BioNTech US Inc., priority 2022, published 2026):

Test system: antigen specific CD8+ T cells
Experiment: Addition of IL-21 to NEO-STIM.RNA cultures
Type: cell-based, human
Excerpt: In order to improve the NEO-STIM protocol using RNA, IL-21 was explored as an addition to the protocol.
In order to improve the NEO-STIM protocol using RNA, IL-21 was explored as an addition to the protocol. […] Using IL-21 in NEO-STIM increases central memory phenotype in antigen specific CD8^+ T cells.

## IL-21: cytokine added to the NEO-STIM protocol using RNA
NEO-STIM process using RNA encoded neoantigenic epitopes
  effect on expansion of T cells: improves expansion of T cells
NEO-STIM.RNA cultures
  effect on central memory phenotype in antigen specific CD8+ T cells: increases the central memory phenotype
  effect on priming of specific T cells: improves the priming of specific T cells
